* marks the point of attachment. FITC = O=C1OC2(c3ccc(O)cc3Oc3cc(O)ccc32)c2ccc(NC(=S)*)cc21; Ahx = NCCCCCC(=O)O
Columns and labels:
[1] = tested on: Human neonate foreskin fibroblasts (ATCC Catalogue No. CRL-2097); assay: Evaluation of cell membrane permeability function (1), confocal laser scanning microscopy of fluorescently labeled peptide; assay type: cell-based; settings: 1 μM sample
Description: Human neonate foreskin fibroblasts (ATCC Catalogue No. CRL-2097) were used as the eukaryotic cells, and the cell membrane permeability capability of the two samples (constructs for transferring a foreign substance) obtained in Example 1 above was investigated.
More specifically, the abovementioned fibroblasts were cultured in a liquid mixture of 90% Eagle MEM culture medium (containing 0.1% nonessential amino acids, 2 mM L-glutamine, 1 mM sodium pyruvate, and 1.5 g/L sodium hydrogen carbonate) and 10% serum (FBS) as the culture medium.
The cultured cells were trypsinized for 1 min at 37° C. with a 0.25% trypsin solution. After the abovementioned treatment, the trypsin was deactivated with FBS-containing medium, and a cell suspension (test sample for foreign substance transfer) was prepared by adjusting the cell concentration to approximately 5×10^4 cells/mL with the culture medium.
Next, 0.5 mL of the abovementioned cell suspension was placed in a designated cell culturing container (culture slide with a surface coating of 0.1% gelatin), and the cells were incubated overnight at 37° C. in a 5% CO2 atmosphere. After incubation the medium was replaced with fresh culture medium, and the 1 mM sample solutions of each of the samples prepared in abovementioned Example 1 were added to a cell culture container so that the final sample concentration (peptide concentration) would be 1 μM. In this case 0.5 μL of sample solution was added to the container. Then the samples were incubated at 37° C. for either 1 or 4 hours in a 5% CO2 atmosphere.
The cells after 1 hour of culture and the cells after 4 hours of culture were each rinsed in PBS (phosphate buffered saline) and fixed with methanol (on ice for 10 min).
Next the methanol-fixed samples (cells) were mounted using Prolong® Gold Antifade Reagent (Invitrogen) that contains the nuclear stain DAPI (4′,6-diamidino-2-phenylindole). Then the localization within the cells of the peptide bonded to the fluorescent dye (i.e., fluorescently labeled peptide) in each test sample (i.e., the abovementioned mounted test samples after methanol fixation) was verified using a confocal scanning laser microscope.
FIGS. 1 and 2 are micrographs showing the results when abovementioned Sample No. 1 was added to the liquid suspension of cells.

[2] = tested on: human iPS cells (cell line 201B2-082008KU); assay: Evaluation of cell membrane permeability function (2), confocal laser scanning microscopy of fluorescently labeled peptide; assay type: cell-based; settings: 1 μM sample; for penetration of the cell membrane from outside the cell / transfer into the cells: 1 hour culture (FIGS. 3, 4), methanol fixed
Description: The target cells for transferring the foreign substance were changed from human neonate foreskin fibroblasts to human iPS cells (human induced pluripotent stem cells), and the cell membrane permeability capability of the two samples (constructs for transferring a foreign substance) obtained in Example 1 above was investigated. It should also be noted that the iPS cells (cell line 201B2-082008KU) and the mouse embryonic fibroblast feeder cells (cell line SNL 76/7, hereinafter “MEF”) used in this example were provided by the Yamanaka Research Laboratory of the Institute for Frontier Medical Sciences, Kyoto University (professor Shinya Yamanaka).
First the obtained MEF were inactivated by a mitomycin C treatment (3 hours) and then trypsinized in a 0.25% trypsin solution containing 1 mM EDTA. After the above treatment, the trypsin was deactivated with culture medium containing FBS, and the MEF were adjusted to a suitable cell density using D-MEM medium (Dulbecco's Modified Eagle Medium: Gibco) containing MEF culture medium (7% FBS: Gibco), 2 mM L-glutamine (Gibco), 50 units/mL penicillin, and 50 μg/mL streptomycin (Gibco), and the abovementioned MEF were seeded onto a culture container (in the form of a culture slide or plate) with a surface coating of 0.1% gelatin. In this case, the MEF were seeded so that the cell density would be approximately 1.25×10^5 cells/mL. Next, the abovementioned cell culture containers were incubated overnight at 37° C. in a 5% CO2 atmosphere.
Thereafter, the feeder cells were prepared by removing the MEF culture medium and rinsing with PBS.
Separately, CTK solution (0.25% trypsin solution containing 0.1 mg/mL collagenase IV (Gibco), 1 mM calcium chloride, and 20% KSR (KnockOut® Serum Replacement)) was added to the obtained iPS cell line, the MEF were peeled therefrom, and the cells were rinsed with PBS.
Next, 1 mL hESC culture medium (i.e., human ES cell medium, in this case, DMEM/F12 culture medium (Gibco) containing 20% KSR (Gibco), 2 mM L-glutamine (Gibco), 0.1% nonessential amino acids (Gibco), 0.1 mM 2-mercaptoethanol (Gibco), 50 units/mL penicillin, and 50 μg/mL streptomycin (Invitrogen, 4 ng/mL bFGF (basic fibroblast growth factor)) was added, the iPS cells were peeled off using a cell scraper, and the colony was broken apart by gentle pipetting.
A suspension of iPS cells obtained in this manner was seeded onto the feeder cells in the culture containers that had been prepared as described above. Then, the abovementioned hESC medium was added, and the cell culture containers were incubated overnight at 37° C. in a 5% CO2 atmosphere.
After incubation overnight, the culture medium was removed from the culture containers, and the abovementioned hESC medium to which one of the 1 mM sample solutions prepared in abovementioned Example 1 had been added to make a final sample concentration (pipetted concentration) of 1 μM was added to the culture containers. Then the samples were incubated at 37° C. for either 1 or 4 hours in a 5% CO2 atmosphere.
The cells after 1 hour of culture and cells after 4 hours of culture were each rinsed in PBS (phosphate buffered saline) and fixed with methanol (on ice for 10 min).
Next, the same treatment as in Example 2 was performed, and the localization within the iPS cells of the peptide that was bonded to the fluorescent dye (i.e., fluorescently labeled) was verified using a confocal scanning laser microscope. FIG. 3 is a micrograph showing the results after 1 hour of culture of the cell suspension to which abovementioned Sample No. 1 had been added, and FIG. 4 is a micrograph after 1 hour of culture of the cell suspension to which abovementioned Sample No. 2 had been added.

Row | Substance | cell membrane permeability [1] | translocation into the nucleus (DAPI nuclear staining) ([1]; 1 or 4 hours culture) | penetration of the cell membrane from outside the cell / transfer into the cells ([1]; 1 or 4 hours culture, methanol fixed) | cell membrane permeability [2] | translocation into the nucleus (DAPI nuclear staining) [2] | penetration of the cell membrane from outside the cell / transfer into the cells [2]
1 | (FAM)-WRRQARFK [Sample No. 1] | exhibited excellent cell membrane permeability | had translocated into the nucleus | penetrated the cell membrane from outside the cell rapidly after it was added, and thus was transferred into the cells | exhibited excellent cell membrane permeability | had further translocated into the nucleus | penetrated the cell membrane from outside the cell rapidly after addition and were transferred into the cells
2 | (FITC)-(Acp)-WRRQARFKGTLKERCLQVVRSLVK ({FITC-Ahx}-WRRQARFKGTLKERCLQVVRSLVK-NH2; SMILES CC(C)C[C@H](NC(=O)[C@H](CS)NC(=O)[C@H](CCCNC(=N)N)NC(=O)[C@H](CCC(=O)O)NC(=O)[C@H](CCCCN)NC(=O)[C@H](CC(C)C)NC(=O)[C@@H](NC(=O)CNC(=O)[C@H](CCCCN)NC(=O)[C@H](Cc1ccccc1)NC(=O)[C@H](CCCNC(=N)N)NC(=O)[C@H](C)NC(=O)[C@H](CCC(N)=O)NC(=O)[C@H](CCCNC(=N)N)NC(=O)[C@H](CCCNC(=N)N)NC(=O)[C@H](Cc1c[nH]c2ccccc12)NC(=O)CCCCCNC(=S)Nc1ccc2c(c1)C(=O)OC21c2ccc(O)cc2Oc2cc(O)ccc21)[C@@H](C)O)C(=O)N[C@@H](CCC(N)=O)C(=O)N[C@H](C(=O)N[C@H](C(=O)N[C@@H](CCCNC(=N)N)C(=O)N[C@@H](CO)C(=O)N[C@@H](CC(C)C)C(=O)N[C@H](C(=O)N[C@@H](CCCCN)C(N)=O)C(C)C)C(C)C)C(C)C) [Sample No. 2, FITC bonded via linker Acp (6-aminohexanoic acid) to the N-terminus of Peptide 2; construct for transferring a foreign substance] | exhibited excellent cell membrane permeability |  |  | exhibited excellent cell membrane permeability | had further translocated into the nucleus | penetrated the cell membrane from outside the cell rapidly after addition and were transferred into the cells

From patent US20120122225A1, “CARRIER PEPTIDE FRAGMENT AND USE THEREOF” (TOAGOSEI CO. LTD., priority 2009, published 2012)
